# Target: T1, Programmed cell death protein 4 (Homo sapiens, UniProt Q53EL6)
# T1 sequence (Q53EL6 whole entry): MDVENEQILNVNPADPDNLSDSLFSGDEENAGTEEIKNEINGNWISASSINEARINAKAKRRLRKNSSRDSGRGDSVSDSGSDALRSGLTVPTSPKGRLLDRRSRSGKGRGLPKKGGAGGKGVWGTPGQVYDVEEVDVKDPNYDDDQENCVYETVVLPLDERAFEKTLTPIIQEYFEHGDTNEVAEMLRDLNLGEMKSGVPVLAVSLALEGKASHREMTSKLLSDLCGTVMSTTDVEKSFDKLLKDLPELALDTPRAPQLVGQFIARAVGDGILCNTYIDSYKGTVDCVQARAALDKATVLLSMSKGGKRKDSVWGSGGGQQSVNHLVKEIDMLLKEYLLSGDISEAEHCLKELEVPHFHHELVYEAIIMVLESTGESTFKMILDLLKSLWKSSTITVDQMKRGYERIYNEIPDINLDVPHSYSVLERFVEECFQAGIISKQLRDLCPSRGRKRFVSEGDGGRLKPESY
# Test: Inhibition of TPA-induced degradation of Pdcd4 (amino acid 39-91) expressed in human HEK293 cells assessed as minimum compound concentration required for 50% recovery of Pdcd4-luciferase signal incubated for 8 hrs by luciferase reporter gene assay
row,Structure (SMILES),EC50 [nM]
1,CCCCCCCCCCCCCCC[C@@H](O)C[C@H](O)C[C@H](O)C[C@H](O)C[C@H](O)C[C@H]1CC=CC(=O)O1 [Cryptocaryol A],4900
2,CCCCCCCCCCCCCCC[C@H](C[C@H](O)C[C@H](O)C[C@H](O)C[C@H](O)C[C@H]1CC=CC(=O)O1)OC(C)=O [Cryptocaryol B],3000
3,CCCCCCCCCCCCCCC[C@@H](O)C[C@H](O)C[C@H](O)C[C@H](O)C[C@H](O)C[C@@H]1OC(=O)C=C[C@@H]1O [Cryptocaryol C],1600
4,CCCCCCCCCCCCCCC[C@H](C[C@H](O)C[C@H](O)C[C@H](O)C[C@H](O)C[C@@H]1OC(=O)C=C[C@@H]1O)OC(C)=O [Cryptocaryol D],1500
5,CCCCCCCCCCCCCCC[C@@H](O)C[C@H](O)C[C@H](O)C[C@H](O)C[C@@H]1OC(=O)C=C[C@@H]1O [Cryptocaryol E],1800
6,"CO[C@H]1C[C@@H]2CC[C@@H](C)[C@@](O)(O2)C(=O)C(=O)N2CCCC[C@H]2C(=O)O[C@H]([C@H](C)C[C@@H]2CC[C@@H](O)[C@H](OC)C2)CC(=O)[C@H](C)/C=C(\C)[C@@H](O)[C@@H](OC)C(=O)[C@H](C)C[C@H](C)/C=C/C=C/C=C/1C [Rapamycin C-7, analog 4]",50
